Test results: US8114854B2, “Crystalline forms of gemcitabine amide prodrug, compositions and use thereof” (Eli Lilly and Company, priority 2006, dated 2012)

Legend:
[1] = result of first pass metabolism; cited from earlier work
mice [2] = settings: comparable exposures via intravenous dosing; cited from earlier work
mice [3] = settings: single oral (gavage) dose of 167, 333, or 500 mg/kg; cited from earlier work
Female CD-1 mice = assay: 4-Day Mouse Screen (toxicology); format: in vivo; settings: oral gavage once daily for 4 days, molar equivalent of 8-mg/kg gemcitabine
Description: To evaluate the toxicity produced by orally administered 1-(2,2-difluoro-2-deoxy-β-D-ribofuranosyl)-4-(2-propyl-1-oxopentyl)aminopyrimidin-2-one when administered daily to female […] mice for 4 days, the gastrointestinal toxicity profiles of 1-(2,2-difluoro-2-deoxy-β-D-ribofuranosyl)-4-(2-propyl-1-oxopentyl)aminopyrimidin-2-one is compared with the historical results for gastrointestinal toxicity when gemcitabine is administered orally at 8 mg/kg in a 4-day mouse study.
Female CD-1 mice 5-8 weeks of age are dosed with 1-(2,2-difluoro-2-deoxy-β-D-ribofuranosyl)-4-(2-propyl-1-oxopentyl)aminopyrimidin-2-one by oral gavage. A dose level is chosen to approximate a molar equivalent of 8-mg/kg gemcitabine. A dose volume of 10 mL/kg is used and doses are administered once daily on 4 consecutive days. Necropsy is performed approximately 5-8 hours following the 4th dose.
Clinical signs, clinical chemistry, gross pathology, and limited histopathology (ileum, jejunum, and liver) are evaluated.

[4] = Small Intestine Homogenate Assay, human; format: in vitro ADME, humans; settings: 6 hour incubation
Description: (§1) Small Intestine Homogenate Assay
(§2) To determine the stability of 1-(2,2-difluoro-2-deoxy-β-D-ribofuranosyl)-4-(2-propyl-1-oxopentyl)aminopyrimidin-2-one to enzymatic hydrolysis in the intestine, crude homogenates of small intestinal epithelial cells are prepared from sections of the upper small intestine from CD-1 mice, beagle dogs, cynomolgus monkeys, and humans. Mouse and dog homogenates are prepared from freshly collected tissue, while monkey and human homogenates are prepared from previously frozen tissues. Cells are gently scraped from intestinal segments, pooled, and homogenized in 50 mM acetate buffer using Polytron (PT-10-85). Protein concentrations are determined by standard spectrophotometric techniques. The prepared homogenates are store at −70° C. before using.
(§3) The hydrolytic rates of 1-(2,2-difluoro-2-deoxy-β-D-ribofuranosyl)-4-(2-propyl-1-oxopentyl)aminopyrimidin-2-one in small intestinal homogenates (SIH) is determined by incubating a compound of formula I (100 uM) with SIH (2.5-5 mg/mL of total protein) in acetate at pH 7.5 for up to 6 hours. Concentrations of gemcitabine released via hydrolysis is determined by LC/MS analysis after the reaction is quenched with acetonitrile. […]

[5] = pH Chemical Stability Assay; format: physicochemical; settings: pH range 1 to 8, after four hours, 40° C., 100 mcg/mL in buffers
Description: pH Chemical Stability Assay
The pH chemical stability is assessed using a semi-automated HPLC technique. Samples of 1-(2,2-difluoro-2-deoxy-β-D-ribofuranosyl)-4-(2-propyl-1-oxopentyl)aminopyrimidin-2-one are prepared at 100 mcg/mL in five buffers representing the pH range throughout the gastrointestinal tract (pH1-pH8). Samples are loaded onto an HPLC autosampler incubated at 40° C. Samples are repeatedly injected on the HPLC at hourly intervals for up to 24 hours with an HPLC column that separates a compound of formula I from gemcitabine. The peak area of 1-(2,2-difluoro-2-deoxy-β-D-ribofuranosyl)-4-(2-propyl-1-oxopentyl)aminopyrimidin-2-one is monitored by UV detection over time and are compared to initial peak areas to determine stability.

[6] = Small Intestine Homogenate Assay, monkey; format: in vitro ADME, cynomolgus monkeys; settings: 6 hour incubation
Description: as §1, §2, §3

[7] = system: Male and female beagle dogs; assay: 7-Day Dog Study (toxicology); format: in vivo; settings: oral via capsule once daily for 7 days
Description: To evaluate the toxicity profile of 1-(2,2-difluoro-2-deoxy-β-D-ribofuranosyl)-4-(2-propyl-1-oxopentyl)aminopyrimidin-2-one when administered to Beagle dogs for 7 days, and to determine the plasma concentrations of 1-(2,2-difluoro-2-deoxy-β-D-ribofuranosyl)-4-(2-propyl-1-oxopentyl)aminopyrimidin-2-one and metabolites gemcitabine HCl and deoxydifluorouridine after 1 or 7 doses, a 7-day dog study is conducted.
Male and female beagle dogs 6-48 months of age are dosed orally via capsule with 1-(2,2-difluoro-2-deoxy-β-D-ribofuranosyl)-4-(2-propyl-1-oxopentyl)aminopyrimidin-2-one. A range of doses is selected in an effort to determine a maximum tolerated dose and dose limiting toxicity. A dose volume of 1 mL/kg is used and doses are administered once daily.
Clinical signs, body weight, food consumption, body temperature, hematology (including coagulation), clinical chemistry, urinalysis, plasma concentrations of 1-(2,2-difluoro-2-deoxy-β-D-ribofuranosyl)-4-(2-propyl-1-oxopentyl)aminopyrimidin-2-one and its metabolites gemcitabine HCl and deoxydifluorouridine, and pathology (including gross pathology, organ weights, and histopathology) were evaluated.

[8] = Liver S9 Hydrolysis Assay, human; format: in vitro ADME; settings: human liver S9, 6 hour incubation
Description: (§4) Liver S9 Hydrolysis Assay
(§5) Hydrolysis of 1-(2,2-difluoro-2-deoxy-β-D-ribofuranosyl)-4-(2-propyl-1-oxopentyl)aminopyrimidin-2-one by liver enzymes is determined by liver hydrolysis assay. Liver homogenates are prepared from CD-1 mouse, beagle dog, cynomolgus monkey, and human livers. Liver tissues are cut into small pieces using scissors, then, homogenized in 50 mM acetate buffer using Polytron (PT-10-85) for 1 min. Post-mitochondrial (S9) fractions are prepared from each by ultracentrifugation at 9,000×g at 4° C. for 10 min. Mouse, dog and monkey liver S9 fractions are prepared from freshly collected tissues, while human liver S9 are prepared from previously frozen tissue. After centrifugation, the supernatant is collected and protein concentrations are determined by standard spectrophotometric techniques. The prepared S9 fractions are store at −70° C. before using.
(§6) The hydrolytic rates of 1-(2,2-difluoro-2-deoxy-β-D-ribofuranosyl)-4-(2-propyl-1-oxopentyl)aminopyrimidin-2-one in liver S9 is determined by incubating compound (10 uM) with S9 (2 mg/mL of total protein) in phosphate buffered saline at pH 8.0 for up to 6 hours. Concentrations of gemcitabine released via hydrolysis are determined by LC/MS analysis after the reaction is quenched with acetonitrile. […]

[9] = system: HCT-116 colon tumor cells; assay: In Vivo Assay, HCT-116 colon tumor xenograft; settings: oral gavage
Description: HCT-116 colon tumor cells are grown in vitro under standard tissue culture conditions, harvested, washed, and 5×10^6 cells (1:1 suspension in Matrigel, Collaborative Biomedical Products, Inc) are injected subcutaneously in the rear flank of female nude mice (Charles River, CD1 nu/nu, 24-27 g, irradiated with 450 Rads within 24 h of implantation). Tumors are allowed to grow to ˜100 mm^3 before initiation of therapy. Vehicle control, 1-(2,2-difluoro-2-deoxy-β-D-ribofuranosyl)-4-(2-propyl-1-oxopentyl)aminopyrimidin-2-one or gemcitabine-HCl at various dose levels are administered to the mice by oral gavage (10 ml/kg volume) at the times indicated in the individual experiments. Compounds are administered either daily for fourteen days, every other day for a total of seven doses, or every third day for a total of four doses. […] Tumor size is determined by caliper measurements and tumor volume (mm^3) is estimated from the formula l×w^2×0.536, where l is the larger and w is the smaller of perpendicular diameters. All data (tumor measurements and animal weights) are captured twice-weekly beginning with the start of therapy and analyzed using a computer based tumor measurement system.

[10] = Liver S9 Hydrolysis Assay, monkey; format: in vitro ADME, cynomolgus monkey; settings: monkey liver S9, 6 hour incubation
Description: as §4, §5, §6

[11] = Liver S9 Hydrolysis Assay (all species); format: in vitro ADME, CD-1 mouse, beagle dog, cynomolgus monkey, and human; settings: all species described; 10 uM, S9 2 mg/mL protein, pH 8.0
Description: as §4, §5, §6

[12] = Monkey Pharmacokinetics Assay; format: in vivo; settings: administered intravenously to cynomolgus monkeys
Description: Monkey Pharmacokinetics Assay
The pharmacokinetic profiles of gemcitabine and a 1-(2,2-difluoro-2-deoxy-β-D-ribofuranosyl)-4-(2-propyl-1-oxopentyl)aminopyrimidin-2-one are assessed in cynomolgus monkeys following oral and intravenous administration in a crossover design. Compounds are administered at doses selected to contain approximately 10 mg/kg of gemcitabine. Blood samples are collected into EDTA-treated tubes containing tetrahydrouridine (0.5 mM final concentration in blood) at designated intervals for up to 48 hours. Animals are pretreated with ranitidine (intravenous, 5 mg/kg) in the oral dosing periods. Plasma is isolated by centrifugation and frozen prior to analysis. Plasma concentrations of gemcitabine and 1-(2,2-difluoro-2-deoxy-β-D-ribofuranosyl)-4-(2-propyl-1-oxopentyl)aminopyrimidin-2-one are determined by LC/MS/MS analysis. Pharmacokinetic parameters are determined using WinNonlin software (Pharsight Corp., Mountain View, Calif.).

Mouse Pharmacokinetics = format: in vivo, male CD-1 mice
Description: The pharmacokinetic profiles of gemcitabine and 1-(2,2-difluoro-2-deoxy-β-D-ribofuranosyl)-4-(2-propyl-1-oxopentyl)aminopyrimidin-2-one are assessed in male CD-1 mice following oral administration at doses selected to contain approximately 10 mg/kg of gemcitabine. Designated animals (n=3/time point/compound) are sacrificed at 0.08, 0.25, 0.5, 1, 2, and 6 hours after dosing, and systemic blood samples are collected into EDTA-treated tubes containing tetrahydrouridine (0.5 mM final concentration in blood) to inhibit further metabolism of gemcitabine. An additional 3 animals are sacrificed at 0.08 hours for collection of hepatic portal blood. Plasma is isolated by centrifugation and frozen prior to analysis. Plasma concentrations of gemcitabine and prodrugs are determined by LC/MS/MS analysis. Pharmacokinetic parameters are calculated using WinNonlin software (Pharsight Corp., Mountain View, Calif.). Pharmacokinetic parameters of each prodrug are compared to those determined from administration of oral gemcitabine hydrochloride in a similar study design.

[13] = system: Male and female CD-1 mice; assay: 14 Day Mouse Study (toxicology); format: in vivo
Description: A 14-Day Mouse Study is conducted to evaluate whether 1-(2,2-difluoro-2-deoxy-β-D-ribofuranosyl)-4-(2-propyl-1-oxopentyl)aminopyrimidin-2-one produces adverse effects in mice following 14 days of oral gavage dosing and to determine the plasma concentrations of 1-(2,2-difluoro-2-deoxy-β-D-ribofuranosyl)-4-(2-propyl-1-oxopentyl)aminopyrimidin-2-one and its metabolites gemcitabine HCl and deoxydifluorouridine after 1 or 14 doses.
Male and female CD-1 mice 9-12 weeks of age are dosed with 1-(2,2-difluoro-2-deoxy-β-D-ribofuranosyl)-4-(2-propyl-1-oxopentyl)aminopyrimidin-2-one drug by oral gavage. A range of doses is selected in an effort to determine a maximum tolerated dose and dose limiting toxicity. A dose volume of 10 mL/kg is used and doses are administered once daily.
Clinical signs, body weight, food consumption, hematology, clinical chemistry, plasma concentrations of 1-(2,2-difluoro-2-deoxy-β-D-ribofuranosyl)-4-(2-propyl-1-oxopentyl)aminopyrimidin-2-one and metabolites gemcitabine HCl and deoxydifluorouridine, and pathology (including gross pathology, organ weights, and histopathology) are evaluated.

[14] = Small Intestine Homogenate Assay (all species); format: in vitro ADME, CD-1 mice, beagle dogs, cynomolgus monkeys, and humans; settings: 100 uM, SIH 2.5-5 mg/mL protein, pH 7.5
Description: as §1, §2, §3

| Compound | oral bioavailability [1] | death or gastrointestinal toxicity (mice [2]) | adverse dose-limiting intestinal lesions (mice [3]) | severity of atrophic intestinal changes or enteropathy versus gemcitabine HCl (Female CD-1 mice) | total compound converted to gemcitabine [4] | degraded to gemcitabine [5] | total compound converted to gemcitabine [6] | hematotoxicity and other toxicities, including GI toxicity [7] | total compound converted to gemcitabine [8] | overall toxicity versus equivalent amount of gemcitabine-HCl ([9]; HCT-116 tumor-bearing nude mice) | antitumor efficacy versus equivalent dose of gemcitabine-HCl ([9]; HCT-116 tumors in nude mice) | total compound converted to gemcitabine [10] | hydrolysis in liver S9 [11] | hydrolysis in vivo to release gemcitabine [12] | concentrations of intact prodrug in hepatic portal plasma (Mouse Pharmacokinetics; 0.08 hours after oral dosing, CD-1 mice) | hydrolysis in vivo to release gemcitabine (Mouse Pharmacokinetics; administered orally to CD-1 mice, dose containing approximately 10 mg/kg of gemcitabine) | plasma exposure to gemcitabine compared to direct oral administration of gemcitabine hydrochloride (Mouse Pharmacokinetics; oral, CD-1 mice) | systemic gemcitabine exposure from the prodrug versus gemcitabine HCl on a molar equivalent basis ([13]; 14-day oral gavage study) | enteropathy versus gemcitabine HCl on a molar equivalent basis ([13]; 14 days of oral gavage dosing) | rate of hydrolysis in small intestine homogenate [14] |
| --- | --- | --- | --- | --- | --- | --- | --- | --- | --- | --- | --- | --- | --- | --- | --- | --- | --- | --- | --- | --- |
| Nc1ccn([C@@H]2O[C@H](CO)[C@@H](O)C2(F)F)c(=O)n1 [gemcitabine, 2′,2′-difluoro-2′-deoxycytidine] | poor oral bioavailability | did not result in death or gastrointestinal toxicity | moderate-to-marked loss of mucosal epithelium (atrophic enteropathy) | – | – | – | – | – | – | – | – | – | – | – | – | – | – | – | – | – |
| CCCC(CCC)C(=O)Nc1ccn([C@@H]2O[C@H](CO)[C@@H](O)C2(F)F)c(=O)n1 [1-(2,2-difluoro-2-deoxy-β-D-ribofuranosyl)-4-(2-propyl-1-oxopentyl)aminopyrimidin-2-one] | – | – | – | significant reduction | less than 3% | Less than 25% | less than 3% | consistent with what has been previously described for parenteral gemcitabine | approximately 35% | less overall toxicity | comparable | approximately 35% | hydrolyzed | extensively hydrolyzed | relatively high concentrations | extensively hydrolyzed | increased | approximately twice | less enteropathy | slow rate of hydrolysis |
